Measurements reported in US20240316052A1, “MITOCHONDRIAL SUPERCOMPLEX FORMATION PROMOTER, COMPOSITION FOR MAINTAINING OR IMPROVING MUSCULAR STRENGTH, THERAPEUTIC OR PREVENTATIVE PHARMACEUTICAL COMPOSITION FOR DISEASES WHICH DECREASE MITOCHONDRIAL FUNCTION OR MUSCULAR FUNCTION, AND SCREENING METHOD FOR SUBSTANCES WHICH CONTRIBUTE TO …” (TOKYO METROPOLITAN GERIATRIC HOSPITAL AND INSTITUTE OF …, priority 2021, published 2024).
“Also recorded” adds a separate entry of the source. Read-outs that look alike come from different tables or passages of the source.

Tests used:
[1] = test system: Syk; assay: Syk mRNA and protein expression after siRNA; format: cell-based, mouse; settings: C2C12 cells
Excerpt: Both mRNA and protein expression levels of Syk in C2C12 cells were suppressed by the above #1 and #2 siRNAs. The above siSyk was transfected into cells stably expressing NDUFB8-AcGFP and COX8A-DsRed monomer, and FRET signals were examined. FRET efficiency was increased in siSyk treatment, compared to siControl treatment (FIG. 7A). The formation of respiratory chain supercomplexes was compared using the same siRNA and mitochondrial fractions extracted from C2C12 cells in which Syk expression was suppressed, according to BN-PAGE. […] Oxygen consumption of C2C12 cells in siControl or siSyk treatment was measured using XFp Extracellular Flux Analyzer.

[2] = test system: C2C12 cells; assay: Oxygen consumption, XFp Extracellular Flux Analyzer; format: cell-based, mouse; settings: 1 μM, compared to solvent-only control
Procedure: Oxygen consumption rate (OCR) was measured as follows. The C2C12 cells were seeded (5×10^3 cells/well) in […] (Agilent Tech, CA, USA) and incubated overnight before measuring OCR and ECAR. One hour before the measurement, the medium was replaced with XF base medium containing 1 mM sodium pyruvate, 2 mM […] and 25 mM glucose (Agilent Tech). Basal respiration, ATP production, and maximal respiration (spare respiratory capacity) of C2C12 cells were measured using XFp Extracellular Flux Analyzer (Agilent Tech) and Mito Stress Kit for XFp (Agilent Tech). The drugs were added in the following order: 1.0 μM oligomycin, 0.5 μM carbonyl cyanide-p-trifluoromethoxyphenylhydrazone, and 0.5 μM rotenone. The baseline (basal) OCR was measured three times before and after the addition of the drugs.

[3] = test system: DBA/2CrSc1 mice; assay: Wire-hang test in mice; format: in vivo; settings: intraperitoneal, compared to DMSO-treated group
Procedure: (§1) Seven-week-old DBA/2CrSc1 mice were injected intraperitoneally with MNS, or DMSO as a control. […] In addition, the formation of respiratory chain supercomplexes by BN-PAGE were compared using mitochondrial fractions extracted from the extensor digitorum longus and soleus muscles of the mice in each group.

[4] = test system: mitochondrial respiratory chain supercomplex formation (NDUFB8-AcGFP / COX8A-DsRed monomer); assay: FRET (cFRET/Donor) in C2C12 cells stably co-expressing NDUFB8-AcGFP and COX8A-DsRed monomer; format: cell-based, mouse
Excerpt: In addition, the protein in which the subunit NDUFB8 of respiratory chain complex I was labeled with AcGFP, and the protein in which the subunit COX8A of respiratory chain complex IV labeled with DsRed monomer, were co-expressed, whereby the fluorescence of DsRed monomer was detected at the excitation wavelength of AcGFP, and the FRET efficiency can be calculated (FIG. 2B).
FRET signals between respiratory chain complex subunits in stably expressing cells were examined using C2C12 cells stably expressing both NDUFB8-AcGFP and COX8A-DsRed monomer and C2C12 cells stably expressing both UQCR11-AcGFP and ATP5F1c-DsRed monomer.
The sequences of siRNAs are as follows.
In the primary screening, the cFRET/Donor of living cells with 40 μM of each 1280 compound was measured using the C2C12 expressing cells stably co-expressing NDUFB8-AcGFP and COX8A-DsRed monomer established in this study (FIG. 5B). In the secondary screening, cFRET/Donor was measured by adding 40, 20, 10, 2.5, or 0.6 μM of each compound.
MNS was added to stably expressed C2C12 cells stepwise from low to high concentrations, and the cFRET/Donor was measured. […] In the following experiments, the respiratory chain supercomplex was examined in C2C12 cells under the condition of 1 μM addition.

[5] = test system: respiratory chain supercomplexes I+III2+IV, I+III2, III2+IV; assay: BN-PAGE of mitochondrial fractions extracted from C2C12 cells; format: cell-based, mouse; settings: compound added, compared to DMSO
[6] = test system: DBA/2CrSc1 mice; assay: Treadmill test in mice; format: in vivo; settings: intraperitoneal, compared to DMSO-treated group
Procedure: as §1

[7] = Toxicity and body weight in mice, intraperitoneal injection; settings: seven-week-old DBA/2CrSc1 mice, vs DMSO
Procedure: as §1

[8] = test system: respiratory chain supercomplexes I+III2+IVn (n=1-2), I+III2, III2+IV; assay: BN-PAGE of mitochondrial fractions from extensor digitorum longus and soleus muscles of mice; format: in vivo; settings: mitochondria of both extensor digitorum longus and soleus muscles, compared to DMSO
Procedure: as §1

[9] = test system: mitochondrial function; settings: already reported; cited from earlier work
[10] = compound added, compared to DMSO
[11] = primary 40 μM; secondary 40, 20, 10, 2.5, 0.6 μM; then BN-PAGE

Compound	mRNA expression level of Syk [1]	protein expression level of Syk [1]	basal respiration [2]	maximal respiration (spare respiratory capacity) [2]	time holding the wire [3]	formation of respiratory chain supercomplexes I+III2+IV, I+III2, III2+IV (BN-PAGE) [5]	running distance [6]	running time [6]	change in body weight [7]	toxicity [7]	outcome of three-step screening (FRET and BN-PAGE) of LOPAC 1280 for compounds that promote respiratory chain supercomplex formation [4, 11]	further results
siSyk #2: siRNA against Syk, sense strand SEQ ID NO:3 and antisense strand SEQ ID NO:4 (sense UUAAUCUUGACAGUAAGACAC; antisense GUCUUACUGUCAAGAUUAAUU; listed as RNA, chemistry not given here)	suppressed	suppressed	–	–	–	–	–	–	–	–	–	–
COc1ccc(-c2cc3nccn3c(Nc3ncccc3C(N)=O)n2)cc1OC [BAY61-3606, 2-[[7-(3,4-dimethoxyphenyl)imidazo[1,2-c]pyrimidin-5-yl]amino]pyridine-3-carboxamide]	–	–	significant increases	significant increases	significantly prolonged	increased	significantly longer	significantly longer	no change	no significant toxicity	–	ATP production [2]: significant increases; EC50 ([4]; stably expressed C2C12 cells, added stepwise from low to high concentrations; read-out: 50% effective concentration (EC50) from cFRET/Donor dose-response curve): 1000 nM
siSyk #1: siRNA against Syk, sense strand SEQ ID NO:1 and antisense strand SEQ ID NO:2 (sense AAUGAAUUCAACAUACAGGGA; antisense CCUGUAUGUUGAAUUCAUUGA; listed as RNA, chemistry not given here)	suppressed	suppressed	–	–	–	–	–	–	–	–	–	–
O=[N+]([O-])/C=C/c1ccc2c(c1)OCO2 [MNS, 3,4-methylenedioxy-β-nitrostyrene]	–	–	significant increases	significant increases	significantly prolonged	increased	significantly longer	significantly longer	no change	no significant toxicity	screened	formation of respiratory chain supercomplexes I+III2+IVn (n=1-2), I+III2, III2+IV (BN-PAGE) [8]: increased; FRET efficiency between subunit fluorescent fusion proteins of respiratory chain complexes I and IV [4, 10]: increase; corrected value of cFRET/Donor [4, 10]: significantly increased; also recorded: improvement; EC50 ([4]; read-out: 50% effective concentration (EC50) from cFRET/Donor dose-response curve; stably expressed C2C12 cells, added stepwise from low to high concentrations): 574 nM
CC1(C)CCC2=C(O1)c1ccccc1C(=O)C2=O [Beta-lapachone]	–	–	–	–	–	–	–	–	–	–	screened	mitochondrial function [9]: improve mitochondrial function
